Data published in patent US20020197365A1, “Highly acidic metalated mixture of inorganic acids” (priority 2001, published 2002).

Conditions: in vivo

SMILES: O=S(=O)(O)O [sulfuric acid]
- irritation or injury of a hand put into the solution: an irritation would occur within a relatively short span of time
